Test results as given in US9388210B2, “Neuroactive 17(20)-Z-vinylcyano-substituted steroids, prodrugs thereof, and methods of treatment using same” (priority 2011, dated 2016).
Where two headings read alike, the source gives them in different places.

Experiments:
[1] = tested on: tadpole; test: Tadpole loss of righting reflex (LRR) and loss of swimming reflex (LSR); assay type: in vivo
[2] = molecular target: rat α1β2γ2L type GABAA receptors (Rattus norvegicus (Rat), UniProt P62813+P63138, INS375LLRMFSFK); test: Oocyte electrophysiology: potentiation of 2 μM GABA chloride currents and direct gating, Xenopus laevis oocytes; assay type: cell-based; conditions: for ratio of currents measured in the presence/absence of added compound, 0.1 μM: 0.1 μM compound; for ratio of currents measured in the presence/absence of added compound, 0.1 μM / ratio of currents measured in the presence/absence of added compound, 1 μM / (gating) 10 μM: ratio of compound only current/2 μM GABA current / ratio of currents measured in the presence/absence of added compound, 10 μM: ± SEM; for ratio of currents measured in the presence/absence of added compound, 0.1 μM / ratio of currents measured in the presence/absence of added compound, 1 μM / ratio of currents measured in the presence/absence of added compound, 10 μM: N ≥ 4; for ratio of currents measured in the presence/absence of added compound, 1 μM: 1 μM compound; for (gating) 10 μM: ratio of compound only current/2 μM GABA current: 10 μM compound in the absence of GABA; for ratio of currents measured in the presence/absence of added compound, 10 μM: 10 μM compound
Excerpt: The measured concentration of GABA, on average, gates about 4% of the maximum response of a cell. However, the sensitivity to GABA of the receptors, which determines the degree of steroid potentiation that can be measured, varied from one batch of oocytes to another.

[3] = molecular target: picrotoxin binding site on GABAA receptors; conditions: for IC50: duplicate experiments in triplicate, ± SEM, read-out: IC50, inhibition of [35S]-TBPS binding
[4] = tested on: BALB/C mice; test: Anesthesia in mice, tail vein injection (loss of righting reflex); assay type: in vivo
Procedure: Anesthetic evaluations were performed in 7-8 week-old BALB/C mice, weighing approximately 20 g. Steroids were dissolved in 22.5% (w/v) 2-hydroxypropyl-β-cyclodextrin solution (Sigma-Aldrich) at a concentration of 1.6 mg/ml or 3.2 mg/ml and injected through the tail vein in volumes of 5 μl/g body weight. Doses (8 or 16 mg/kg) were calculated according to body weight. Animals were placed prone as soon as they stopped moving. Loss of LRR was defined as inability of mice to right themselves within 5 seconds after being placed in a prone position. […] Animals were placed on a warming blanket during the time that they were anesthetized. Each dose was administered to three or four mice and the results are presented as mean±standard error of the mean.

[5] = loss of righting reflex, ± SEM, read-out: Tadpole LRR EC50
[6] = loss of swimming reflex, None = all animals had a swimming response at 10 μM, read-out: Tadpole LSR EC50
[7] = loss of swimming reflex, None = all animals had a swimming response at 10 μM

Molecule | EC50 [1, 5] [µM] | EC50 [1, 6] [µM] | ratio of currents measured in the presence/absence of added compound, 0.1 μM ([2]; 2 μM GABA) | ratio of currents measured in the presence/absence of added compound, 1 μM ([2]; 2 μM GABA) | (gating) 10 μM: ratio of compound only current/2 μM GABA current [2] | ratio of currents measured in the presence/absence of added compound, 10 μM ([2]; 2 μM GABA) | IC50 [3] [µM] | also measured
C[C@]12CC[C@@H](O)C[C@@H]1CC[C@@H]1[C@@H]2C(=O)C[C@]2(C)/C(=C/C#N)CC[C@@H]12 [Compound 6b, [3α,5α,17(20)E]-3-Hydroxy-11-oxopregn-17(20)-ene-2′-nitrile] | 9.15 ± 5.37 | 17.3 ± 0.17 | – | – | – | – | – | –
C[C@]12CC[C@@H](O)C[C@@H]1CC[C@H]1[C@@H]3CC[C@H](C=O)[C@@]3(C)CC(=O)[C@@H]12 [Compound 5b, (3α,5α,17β)-3-Hydroxy-11-oxoandrostane-17-carboxaldehyde] | 3.98 ± 2.43 | – | – | – | – | – | – | –
C[C@]12CC[C@@H](O)C[C@H]1CC[C@@H]1[C@@H]2C(=O)C[C@]2(C)/C(=C/C#N)CC[C@@H]12 [Compound 13b, [3α,5β,17(20)E]-3-Hydroxy-11-oxo-pregn-17(20)-ene-21-nitrile] | > 10 | – | – | – | – | – | – | Tadpole LSR EC50 [1, 7]: None
CO[C@H]1C[C@]2(C)/C(=C\C#N)CC[C@H]2[C@@H]2CC[C@H]3C[C@H](O)CC[C@]3(C)[C@H]21 [Compound 17a, [3α,5α,11β,17(20)Z]-3-Hydroxy-11-methoxypregn-17(20)-ene-21-nitrile] | 0.067 ± 0.003 | 0.173 ± 0.003 | 2.14 ± 0.28 | 10.28 ± 2.62 | 0.06 ± 0.07 | 11.20 ± 3.28 | 0.053 ± 0.007 | –
C[C@]12CC[C@@H](O)C[C@@H]1CC[C@@H]1[C@@H]2CC[C@]2(C)/C(=C/C#N)CC[C@@H]12 [Compound 14b, [3α,5α,17(20)E]-3-Hydroxypregn-17(20)-ene-21-nitrile] | 1.21 ± 0.41 | > 10 | 0.76 ± 0.05 | 1.30 ± 0.07 | −0.14 ± 0.13 | 3.15 ± 0.38 | 0.501 ± 0.039 | –
CO[C@H]1C[C@@]2(C)[C@@H](CC[C@@H]3[C@@H]2CC[C@]2(C)/C(=C\C#N)CC[C@@H]32)C[C@@H]1O [Compound 16a, [2β,3α,5α,17(20)Z]-3-Hydroxy-2-methoxyandrost-17(20)-ene-21-nitrile] | 0.029 ± 0.006 | 0.11 ± 0.001 | 2.14 ± 0.33 | 12.02 ± 2.54 | 0.40 ± 0.12 | 18.77 ± 5.16 | 0.028 ± 0.002 | –
CO[C@H]1C[C@@]2(C)[C@@H](CC[C@@H]3[C@@H]2CC[C@]2(C)/C(=C/C#N)CC[C@@H]32)C[C@@H]1O [Compound 16b, [2β,3α,5α,17(20)E]-3-Hydroxy-2-methoxyandrost-17(20)-ene-21-nitrile] | 0.29 ± 0.05 | 2.97 | 0.95 ± 0.15 | 1.34 ± 0.07 | 0.03 ± 0.14 | 4.81 ± 0.36 | 0.544 ± 0.087 | –
C[C@]12CC[C@@H](O)C[C@H]1CC[C@@H]1[C@@H]2CC[C@]2(C)/C(=C\C#N)CC[C@@H]12 [Compound 15a, [3α,5β,17(20)Z]-3-Hydroxypregn-17(20)-ene-21-nitrile] | 0.472 ± 0.046 | 1 | 1.32 ± 0.03 | 5.00 ± 0.30 | 0.03 ± 0.02 | 6.82 ± 0.68 | 0.056 ± 0.01 | –
C/C(C#N)=C1\CC[C@H]2[C@@H]3CC[C@H]4C[C@H](O)CC[C@]4(C)[C@H]3C(=O)C[C@]12C [Compound 6c, [3α,5α,17(20)Z]-3-Hydroxy-11-oxopregn-17(20)-ene-20-carbonitrile] | 2.71 ± 0.26 | 5.48 ± 0.2 | – | – | – | – | – | –
CC(=O)[C@H]1CC[C@H]2[C@@H]3CC[C@H]4C[C@H](O)CC[C@]4(C)[C@H]3C(=O)C[C@]12C [Compound 1, alphaxalone, reference compound] | – | – | – | – | – | – | – | duration of anesthesia (loss of righting reflex) ([4]; 16 mg/kg): about 4 min; recovery period from initial return of leg movement to righting and walking ([4]; 16 mg/kg): 1 to 2 min
C[C@]12CC[C@@H](O)C[C@H]1CC[C@@H]1[C@@H]2CC[C@]2(C)/C(=C/C#N)CC[C@@H]12 [Compound 15b, [(3α,5β,17(20)E]-3-Hydroxypregn-17(20)-ene-21-nitrile] | 1.21 ± 0.35 | 5.48 ± 0.2 | 0.94 ± 0.02 | 1.24 ± 0.04 | 0.01 ± 0.01 | 4.83 ± 0.44 | 1.2 | –
C[C@]12CC[C@@H](O)C[C@@H]1CC[C@@H]1[C@@H]2C(=O)C[C@]2(C)/C(=C\C#N)CC[C@@H]12 [Compound 6a, [3α,5α,17(20)Z]-3-Hydroxy-11-oxopregn-17(20)-ene-2′-nitrile] | – | 5.48 ± 0.2 | – | – | – | – | – | potentiation of GABA-mediated currents ([2]; 2 μM GABA, 0.1-10 μM compound): strongly enhanced GABA-mediated currents; duration of anesthesia (loss of righting reflex) ([4]; 8 mg/kg): about 1.5 min; time to loss of movement and righting reflex ([4]; 8 mg/kg): 10 to 25 s; duration of anesthesia (loss of righting reflex) ([4]; 16 mg/kg): about 4 min; onset of loss of righting reflex ([4]; 16 mg/kg): immediate
CO[C@H]1C[C@]2(C)/C(=C/C#N)CC[C@H]2[C@@H]2CC[C@H]3C[C@H](O)CC[C@]3(C)[C@H]21 [Compound 17b, [3α,5α,11β,17(20)E]-3-Hydroxy-11-methoxypregn-17(20)-en-21-nitrile] | 1.19 ± 0.49 | 3.17 ± 0.01 | 0.99 ± 0.02 | 1.07 ± 0.03 | 0.01 ± 0 | 3.68 ± 0.17 | 0.605 ± 0.139 | –
[3α,5α,17(20)E]-3-(Acetyloxy)-11-oxopregn-17(20)-ene-20-carbonitrile [Compound 6d] | 2.09 ± 0.12 | > 10 | – | – | – | – | – | –
C[C@]12CC[C@@H](O)C[C@H]1CC[C@@H]1[C@@H]2C(=O)C[C@]2(C)/C(=C\C#N)CC[C@@H]12 [Compound 13a, [3α,5β,17(20)Z]-3-Hydroxy-11-oxo-pregn-17(20)-ene-21-nitrile] | > 10 | – | – | – | – | – | – | Tadpole LSR EC50 [1, 7]: None
C[C@]12CC[C@@H](O)C[C@@H]1CC[C@@H]1[C@@H]2C(=O)C[C@]2(C)C(C=O)=CC[C@@H]12 [Compound 5a, (3α,5α)-3-Hydroxy-11-oxoandrost-16-ene-17-carboxaldehyde] | 3.22 ± 0.03 | – | – | – | – | – | – | –
C[C@]12CC[C@@H](O)C[C@@H]1CC[C@@H]1[C@@H]2CC[C@]2(C)/C(=C\C#N)CC[C@@H]12 [Compound 14a, [3α,5α,17(20)Z]-3-Hydroxypregn-17(20)-ene-21-nitrile] | – | – | 2.18 ± 0.19 | 3.28 ± 0.37 | 0.29 ± 0.32 | 3.98 ± 0.25 | 0.025 ± 0.003 | anesthetic activity in tadpoles ([1]; LRR and LSR): lack of anesthetic activity; Tadpole LRR EC50 ([1]; loss of righting reflex, ± SEM): None; Tadpole LSR EC50 [1, 7]: None; fold stronger [35S]-TBPS displacement than 17a ([3]; relative to C-11 MeO (17a)): about 2 fold; fold stronger [35S]-TBPS displacement than 6a ([3]; relative to C-11 carbonyl (6a)): about 5 fold
